Legend:
[1] = tested on: cholinesterase (AChE and BuChE); experiment: Cholinesterase activity in spleen and colon of mice drinking DSS (Ellman); type: in vivo; conditions: for ChE activity colon / ChE activity spleen: DSS 5%, 8 days
Protocol: BALB/c OlaHsd male mice aged 8-9 weeks and weighing 25-30 g were purchased from Harlan (Jerusalem, Israel) and housed in standard cages of up to 5 per cage in the pathogen free Animal Facility of the Institute for Drug Research. All experiments were performed in accordance with the Principles of Laboratory Animal Care (NIH publication #85-23, revised 1985) protocols MD-09-12197-4. Acute colitis was induced in mice by administration of 5% DSS solution (M.Wt.=[…], MP Biomedicals, LLC, Solon, Ohio, USA) in water for 8 days. The DSS solution was freshly prepared every day. Mice were provided with food and water or DSS solution ad libitum during the experiment. They were divided into groups of 10 as follows: Vehicle control group: mice drank water and were given water (1 ml/100 gm) once daily by gavage for 8 days; Drug control group: mice drank water and were given ladostigil (10 mg/kg) by gavage once daily for 8 days. DSS untreated group: mice drank 5% DSS for 7 days and water on the 8th day and were given water (1 ml/100 g) once daily by gavage for 8 days. Drug treated group: mice drank 5% DSS followed by water as above and were given ladostigil (5 or 10 mg/kg) by gavage once daily for 8 days. The volume of 5% DSS solution consumed was measured for each group of mice and the average volume/mouse was calculated. On the eighth day, the mice were anesthetized by CO2 and sacrificed by cervical dislocation 2 h after the last dose of ladostigil. Samples of colon and spleen were taken for measurement of cytokines MPO, cytokines and ChE activity.
In experiments on the effect of chronic treatment with ladostigil on ChE activity in mice drinking DSS, the spleen was rapidly removed as described above, together with a colon segment of about 0.5 cm in length taken from the proximal area. Spleen and colon segments were washed in cold phosphate buffered saline (PBS) before they were frozen at −80° C. For assay, the tissue was unfrozen and weighed and PBS was added to each tissue at a ratio of 1 mg tissue to 1 ml. Tissues were homogenized at a speed of 24,000 rpm in cold phosphate buffer pH 7 containing 0.1% Triton and centrifuged at 14000 rpm. Aliquots of plasma and the supernatant from the spleen and colon were incubated with acetylthiocholine and dinitro benzoic acid in phosphate buffer pH 7 and the rate of development of the yellow color was measured as described by Ellman et al, (1961). Percent inhibition of ChE activity was calculated by comparison with that of control mice given water by gavage. Protein concentration was determined by means of by Pierce BCA Protein Assay Kit (Thermo Scientific, USA) according to the manufacturer's instructions. It is noted, that ChE activity in the colon and spleen of mice is attributed mainly to that of AChE while that in mouse plasma is mainly attributable to BuChE.

[2] = tested on: cholinesterase (mostly BuChE); experiment: ChE inhibition in gerbil plasma (Ellman); type: in vivo, Psammomys obesus; conditions: 17 mg/kg/day, three hours after the last gavage, vs same gerbil before treatment
Protocol: Male Psammomys obesus gerbils aged 3.5-4 months were given a high-energy diet consisting of 938.5 g/Kg version of 2018SC+F Harlan Tekled Ltd., USA, supplemented with soybean oil to a final fat concentration of 6%. After one week on the diet, blood was taken for measurement of glucose and ChE activity. Half of the animals were given ladostigil (17 mg/kg/day) by gavage while the remainder received tap water by the same route. Blood was taken from the tail once weekly for measurement of glucose as described in Kalman R., et al, (2001). Lab Anim. 35:346-352. After three weeks of treatment the animals they were deeply anesthetized, blood was taken by cardiac puncture for measurement of ChE activity, glucose and insulin levels and the pancreas removed for section and staining with haematoxylin and eosin and the number of islets counted. Blood glucose of 11 animals had reached values exceeding 200 mg/dL after one week on the high energy diet and the average value for the whole group was 300±27 mg/dL. […] It is noted, that cholinesterase activity in plasma of Psammomys obesus is mostly mediated by butyrylcholinesterase (BuChE) rather than by AChE.

[3] = tested on: rat heart ischemia/reperfusion; experiment: Myocardial ischemic preconditioning, isolated Langendorff hearts of chronically treated rats; type: in vivo, Wistar rats; parameters: DP: unit not given beside the values; conditions: for DP / HR / WI: old rats; for WI: percent of value at end of stabilization
Protocol: Four groups of male rats of the Wistar strain were used for these studies; a) 3-months old untreated; b) 22 months old, untreated; c) 22 months old treated from the age of 16 months by daily oral administration of ladostigil hemitartrate at a dose of 1 mg/kg/day (hereinafter “low dose”; d) 22 months old treated from the age of 16 months by daily oral administration of ladostigil hemitartrate at a dose of 8.5 mg/kg/day (hereinafter “high dose”).
On the day of the experiment, rats were injected with i.p. sodium heparin (500 units/kg) followed 30 min later by 80 mg/kg ketamine plus 5 mg/kg xylazine i.p. Bilateral thoracotomy was performed and hearts with a segment of the ascending aorta were rapidly excised, put in ice-cold heparinized saline and mounted onto the Langendorff apparatus. They were perfused with a modified Krebs-Henseleit (KH) buffer as described in Chevion et al. (1993). Heart rate (HR), developed pressure (DP), and its derivatives (+dp/dt and −dp/dt) were recorded. All primary data were processed using a customized version of LabView 7.1 software (National Instruments, Austin, Tex., USA). Work index (WI=Heart Rate×DP) was used as an indicator of heart contractility. The degree of cardio-protection was expressed by the percent (ratio) of two values: WI at the completion of the experiment (at the 120th min) and WI at the completion of the stabilization phase (at the 10th min).
Experimental protocol: Three basic experimental protocols were employed: (i) continuous (un-interrupted) perfusion: (ii) stabilization (25 min) followed by ischemia and reperfusion (35/60 min) (I/R), and (iii) stabilization (10 min) followed by IPC, ischemia and reperfusion (IPC+I/R). The hemodynamic parameters of the heart were monitored and recorded continuously throughout, during all experimental protocols. Under the I/R protocol, the stabilization phase was extended from 10 to 25 min to compensate for the 15 min of the IPC procedure, which consisted of 3 cycles of (2 min ischemia and 3 min perfusion).

[4] = IPC + I/R, high dose 8.5 mg/kg/day
[5] = IPC + I/R, low dose 1 mg/kg/day

SMILES: C#CCN[C@@H]1CCc2ccc(OC(=O)N(C)CC)cc21 [Ladostigil, R(+)-6-(N-methyl, N-ethyl-carbamoyloxy)-N′-propargyl-1-aminoindan]
- Inhibition of ChE in the colon ([1]; 5 or 10 mg/kg): Neither dose of ladostigil caused any significant inhibition
- ChE activity colon ([1]; 5 mg/kg orally once daily): 18.5 ± 1.4 μmoles of acetylthiocholine hydrolyzed/min/mg protein
- ChE activity spleen ([1]; 5 mg/kg orally once daily): 10.8 ± 0.6 μmoles of acetylthiocholine hydrolyzed/min/mg protein
- ChE activity colon ([1]; 10 mg/kg orally once daily): 16.7 ± 1.2 μmoles of acetylthiocholine hydrolyzed/min/mg protein
- ChE activity spleen ([1]; 10 mg/kg orally once daily): 10.2 ± 0.7 μmoles of acetylthiocholine hydrolyzed/min/mg protein
- ChE inhibition in plasma [2]: 50±3%
- Effect on WI after ischemia and 60 min reperfusion ([3]; aging rats, I/R without IPC, either dose): no significant effect
- DP ([3]; I/R, high dose 8.5 mg/kg/day): 14 ± 6
- HR ([3]; I/R, high dose 8.5 mg/kg/day): 83 ± 8
- WI ([3]; I/R, high dose 8.5 mg/kg/day): 12 ± 5%
- DP ([3]; I/R, low dose 1 mg/kg/day): 20 ± 10
- HR ([3]; I/R, low dose 1 mg/kg/day): 67 ± 15
- WI ([3]; I/R, low dose 1 mg/kg/day): 13 ± 6%
- DP [3, 4]: 30 ± 12
- HR [3, 4]: 92 ± 28
- WI ([3]; IPC + I/R, high dose 8.5 mg/kg/day, 8.5 mg/kg/day): 26 ± 6%
- WI ([3]; IPC + I/R, high dose 8.5 mg/kg/day, listed as ladostigil, 8.5 mg/kg/day): much smaller
- DP [3, 5]: 68 ± 15
- HR [3, 5]: 77 ± 8
- WI ([3]; IPC + I/R, low dose 1 mg/kg/day, 1 mg/kg/day): 53 ± 12%
- WI ([3]; IPC + I/R, low dose 1 mg/kg/day, listed as ladostigil, 1 mg/kg/day): > 50%

Reference: patent publication US9867798B2, “Ladostigil therapy for immunomodulation” (priority 2012, dated 2018)
